Source: patent US20080207766A1, “METHODS AND COMPOSITIONS FOR TREATING AT LEAST ONE UPPER GASTROINTESTINAL SYMPTOM” (AGI Therapeutics Research Ltd., priority 2007, published 2008)
Counter-ions that a name gives are not always drawn.

Columns and labels:
[1] = Pharmacokinetics of oral conventional formulation in adults (Young et al.); assay type: in vivo, human
Procedure: Bear et al., Am. J. Physiol., 186, 180-86 (1956). […] Young et al., Clinical Therapeutics, 23(4) (2001). […] The typical dose used for treating hypertensive subjects is about 25 mg/day, and is dosed using conventional formulations.

[2] = tested on: patients with functional diarrhea; test: Clinical study, randomized double-blind placebo-controlled forced dose escalation, 12 weeks; assay type: in vivo, human
Description: While functional diarrhea is a condition dominated by altered lower bowel function associated with chronic diarrhea, it is also associated with upper gastrointestinal related symptoms such as nausea. For instance, patients suffering from similar lower bowel functional conditions such as IBS ([…]) have a reported incidence of nausea of 32%-other conditions also have relatively high baseline incidences of nausea, i.e., functional dyspepsia 39%, oesophagitis 17%, duodenal ulcer 34%, gastric ulcer 39%, gallstone disease 28%, alcohol related dyspepsia 37%, and gastric cancer 48%. […], ABC of the Upper Gastrointestinal Tract Anorexia, Nausea, Vomiting and Pain, 323 BMJ (8 Dec. 2001). […] Eighty-two patients (both male and female) meeting ROME II criteria (modified) for Functional Diarrhea were randomized in the study. Using an intent-to-treat analysis and the entire 12 weeks of dose-escalation therapy, the incidence of nausea in the placebo group was 20%, indicating a relatively high baseline of nausea for that condition.

[3] = cited from earlier work
[4] = expected from Young et al. data, conventional formulation
[5] = 2.5 mg dose, conventional formulation, adults
[6] = 7.5 mg dose, conventional formulation, adults

Row | SMILES | expected peak plasma concentration ([1]; about 25 mg/day dose for hypertensive subjects, conventional formulations) | 24 hour plasma concentration level as share of peak plasma concentration [1, 4] | time for which about 50% of the peak plasma concentration is maintained [1, 4] | changes in blood pressure ([2]; FIGS. 1 and 2, over the course of the study) | incidence of nausea ([2]; intent-to-treat, entire 12 weeks, once daily 2 then 4 then 6 mg/day, placebo 20%) [%] | maximum plasma concentration (Cmax) [3, 5] | time to achieve the highest plasma concentration (Tmax) [3, 5] [h] | Cmax [3, 6] [ng/mL] | Tmax [3, 6] [h] | absorption from the gastrointestinal tract ([3]; dosed orally, conventional formulations (Bear et al.))
1 | CNC1(C)C2CCC(C2)C1(C)C (racemic) [mecamylamine] | about 78.9 ng/mL | less than 25% | about 14 hours | no clinically significant changes | 9 | – | – | – | – | –
2 | CNC1(C)C2CCC(C2)C1(C)C (stereo not shown) [mecamylamine hydrochloride, N-2,3,3-tetramethylbicyclo[2.2.1]heptan-2-amine hydrochloride] | – | – | – | – | – | about 7.89 ng/mL | 3.11 | 23.68 | 3.04 | nearly completely and rapidly absorbed
